The values below come from paper PMC8079784, “The Mechanism of Action of Antigen Processing Independent T Cell Epitopes Designed for Immunotherapy of Autoimmune Diseases” (Frontiers in Immunology, 2021).

Data set [1] concerns autoimmune hemolytic anemia. The note with it: cited from earlier work. An excerpt:
Previously we have shown that the impact of CD4 T cell epitope administration in the absence of adjuvant depends on peptide solubility. […] Importantly, however, addition of charged residues at the N- and C-termini of the band 3 epitope rendered it both soluble and immuno-modulatory. Unlike the insoluble 861-874 that both primed band 3 reactive inflammatory T cells and promoted generation of pathogenic ...

A further data set concerns CD4 cells. In words: Intracellular cytokine staining of spleen cells for IL-10 after dose escalation. Type of data set: in vivo, mouse (Tg4). The settings on record: Tg4 mice, after the final 80 µg dose of dose escalation. The procedure:
(§1) Tg4 mice were primed with a single dose (80μg) of 4Y in PBS by SC injection. Tolerance induction involved escalating dose immunotherapy (EDI) whereby each Tg4 or tiger-Tg4 mouse was treated with 0.08, 0.8, 8, 80, 80 and 80μg 4Y in PBS by SC injection at the right-side flank every 3rd or 4th day ([20]).
Intracellular cytokine staining of splenocytes was performed after a 3-h stimulation with phorbol 12-myristate 13-acetate (5ng/ml) and ionomycin (500ng/ml) (both Sigma-Aldrich) with GolgiStop (BD Biosciences). Cells were stained with Vβ8-FITC (clone KJ16-133, diluted 1:100) or with fixable viability dye eFluor780 (1:1,000) before surface staining with CD4-Alexa700 (GK1.5, 1:100) and fixation using IC fixation buffer (all from eBioscience). Antibodies for intracellular cytokine staining were diluted in permeabilization buffer; IL-10-allophycocyanin (APC) (JES5-16E3, 1:200), IFN-γ-PerCP-Cy5.5 (XMG1.2, 1:200) (both from eBioscience). Data were collected using an LSR II flow cytometer (BD Biosciences) and analyzed using FlowJo software (Treestar).

For data set [2], the system named is lymph node cells or splenocytes. In words: T cell anergy: ex vivo proliferation of lymph node cells or splenocytes after dose escalation. Type of data set: in vivo, mouse (Tg4). The settings on record: Tg4 mice, six escalating SC doses, cells three days after sixth dose, 3H-TdR at 72 hours. The protocol: as §1
Proliferation was assessed by tritiated thymidine (^3H-TdR) incorporation with either whole splenocytes or isolated APC populations and antigen-specific Tg4 responder CD4^+ T cells. Tg4 whole splenocytes were cultured in 96-well round bottom plates, 2x10^5 whole splenocytes per well, with addition of the indicated concentration of the relevant peptide. Whole splenocytes from B10.PL mice that had received CD4^+ CD45.1^+ T cells followed by CD11c^+ cells were cultured in 48–well plates at 1.25x10^6 per well. […] Levels of incorporated radioactivity were assessed from the dried filter papers, sealed in sample bags (Wallac, Milton Keynes, UK) with 3ml scintillation fluid, ^3H-TdR incorporation was measured on a 1450 MicroBeta liquid scintillation counter (Wallac).
Figure 2 Peptide solubility predicts accessibility to steady state DC and determines tolerance induction: The 4Y peptide was rendered increasingly insoluble by addition of LF motifs. […] Proliferation was measured by tritiated thymidine (^3H-TdR) incorporation at 72 hours. […]

A further data set deals with serum IL-2. Description: Serum IL-2 after a single SC dose of peptide. Type of data set: in vivo, mouse (Tg4). The note with it: Tg4 mice, single SC dose 80µg. The procedure: as §1
(§2) MFBI Th1/Th2 Flow Cytomix Multiplex kits (eBioscience) were used to measure the concentration of cytokines in the serum 2 h after s.c. treatment with soluble peptide.
(§3) Figure 3 Impact of soluble versus insoluble peptide treatment on T cell function in Tg4 mice. A single SC dose of soluble 4Y (80µg) induces rapid and high levels of IL-2 into the serum of Tg4 mice (A) when compared to insoluble 4Y-3LF (B). For the data shown in (C), Tg4 mice received a SC injection of 80µg MBP Ac1-9[4Y] or 4Y-3LF. Blood was removed from the tail vein at the specified times following injection, baseline was taken prior to peptide injection and the cellular fraction was stained for flow cytometry. Inguinal lymph node (ILN), brachial lymph node (BLN) and spleen were collected at 48–hours. Percentages of CD4^+ cells were gated on live singlets. […] (*p ≤ 0.05, **p ≤ 0.01, ***p ≤ 0.001, ****p ≤ 0.0001). […] Tg4 mice were given SC injections of PBS containing the indicated doses of 4Y peptide given every 3rd or 4th day (2 doses per week).

For another data set, the system named is splenic CD11c+ DC. Description: In vivo APC targeting after SC peptide: ex vivo presentation to naive Tg4 CD4+ T cells. Details: species or system mouse (B10.PL). The note with it: 80µg SC, proliferation of Tg4 CD4+ T cells in vitro. An excerpt: CD11c^+ cells were isolated from whole splenocytes in MACS buffer using the CD11c microbead positive selection kit (Miltenyi Biotec, Surrey, UK) as per the manufacturer’s instructions. Single cell suspensions were used for magnetic selection using the EasySep Mouse B Cell Isolation kit or EasySep Mouse Monocyte Enrichment kit (both Stemcell Technologies, Grenoble, France) as per the manufacturer’s instructions. In the B10.PL APC targeting experiments, single cell suspensions (without digestion) of Tg4 splenocytes were counted and T cells isolated using Magnisort® Mouse CD4 T cell isolation kit (affymetrix, eBioscience, Hatfield, UK) as per the manufacturer’s instructions. Cells were either enriched by magnetic sorting prior to fluorescence-activated cell sorting (FACS) or sorted from splenocytes. […] Peptide bound to APC was detected in vitro by activation of naïve Tg4 cells, as evidenced through ^3H.thymidine incorporation. […] Peptide bound to APC was detected in vitro by activation of CD4^+ T cells from the lymph nodes and spleen of HLA-DR3 transgenic mice immunized with the 5D peptide in CFA. T cell activation was detected by interferon gamma secretion over 3 days.
Proliferation was assessed by tritiated thymidine (^3H-TdR) incorporation with either whole splenocytes or isolated APC populations and antigen-specific Tg4 responder CD4^+ T cells. […]

The test system of a further data set is Tg4 splenocytes. Description: In vitro antigenicity: proliferation of Tg4 splenocytes (3H-TdR). Type of data set: cell-based, mouse. The settings on record: 2x10^5 per well, 3H-TdR at d3; limiting dose 1 ng/ml. The procedure: Proliferation was assessed by tritiated thymidine (^3H-TdR) incorporation with either whole splenocytes or isolated APC populations and antigen-specific Tg4 responder CD4^+ T cells. Tg4 whole splenocytes were cultured in 96-well round bottom plates, 2x10^5 whole splenocytes per well, with addition of the indicated concentration of the relevant peptide. Whole splenocytes from B10.PL mice that had received CD4^+ CD45.1^+ T cells followed by CD11c^+ cells were cultured in 48–well plates at 1.25x10^6 per well. Isolated populations were plated out at 5x10^4/well CD4^+ T cells, with either equal numbers of CD11c^+ DC, B cells or monocytes enriched as specified. Cells were cultured at 37°C, 5% CO2. At 24 and 72 hours, supernatant was taken for cytokine analysis and medium was supplemented with 0.5µCi ^3H-TdR (GE Healthcare Lifesciences, UK) for 16 hours. Plates were frozen at –20°C in preparation for later harvesting with a Tomtec harvester onto filter papers (Cox Scientific, Kettering, UK). Levels of incorporated radioactivity were assessed from the dried filter papers, sealed in sample bags (Wallac, Milton Keynes, UK) with 3ml scintillation fluid, ^3H-TdR incorporation was measured on a 1450 MicroBeta liquid scintillation counter (Wallac).

For another data set, the system named is serum IL-10. In words: Serum IL-10 during dose escalation of SC peptide. Type of data set: in vivo, mouse (Tg4). The settings on record: Tg4 mice, SC dose escalation 0.08 to 80µg every 3rd or 4th day. The procedure:
as §1, §2, §3

Consider “861-874: insoluble peptide epitope from the red blood cell band 3 protein (FVLILTVPLRRVLL; UniProt P02730 861-874, looked up, fragment) [Peptide 861-874]”, for which, in data set [1] (intranasal, no adjuvant), the “Effect of intranasal administration in NZB mice” value is “promote autoimmunity”. Moreover, the “Solubility of band 3 peptide” value in data set [1] (mouse, in vivo) is given as “insoluble”.

Turning to Ac-ASQYRPSLFLFLF-NH2 [Peptide 4Y-3LF], the “CD4 cells producing IL-10 (intracellular cytokine staining of spleen cells)” value in the data set on CD4 cells is “close to background levels”. For the same substance, the “Ex vivo proliferation of lymph node cells or splenocytes stimulated with the Ac1-9 peptide” value in data set [2] was “partially suppressed”. Further, the “Time of peak serum IL-2 after SC injection” value in the data set with serum IL-2 came out at 8 h. The “Presentation by splenic CD11c+ DC collected 2h after SC administration” value with splenic CD11c+ DC is recorded as “barely detectable”. Further, the “Antigenicity: proliferation of Tg4 splenocytes in vitro” value in the data set with Tg4 splenocytes is given as “significantly weaker”. In the data set with serum IL-10, the “IL-10 detectable in serum” value was “No IL-10 was detectable”.
